# Measured values from US6423734B1, “Method of preventing cancer” (The Procter & Gamble Company, priority 1999, dated 2002).
# Several values for one entry are separate records, joined by “and”; a condition that tells them apart may be missing. Equal entries are not always repeated.
# Test system: C57BL/6J-Apc^Min mice
# Assay: Chemopreventive activity in Apc^Min mouse model (intestinal tumor number)
# Settings: for Tumor # ±S.D.: avg. age 118 days
# Description: In both studies,—Carbendazim was administered orally at 1000 mg/kg, 1500 mg/kg, and 2000 mg/kg on a twice weekly to end schedule. In order to provide a positive control for the Apc^Min mouse study, Sulindac was administered ad libitum in the drinking water at 85 mg/l. Gemcitabine at 80 mg/kg, i.p., served as the positive control in the MiaPaCa study.
# Female C57BL/6J-Apc^Min mice were obtained from The Jackson Laboratory at 4-5 weeks of age. The following day (Day 1), drug treatment begins. The Min (Multiple intestinal neoplasia) mouse is a strain with a mutated murine Apc (adenomatous polyposis coli) gene, which leads to the development of multiple intestinal polyps. This development is time and diet dependent, with 100% of the mice which ingest a high fat diet forming adenomas beginning around 45 days of age. These mice develop in excess of 30 adenomas throughout the intestinal tract during their 120 day life span and are therefore an ideal model for the evaluation of potential chemopreventive agents.
# The mean survival times of all groups were calculated, and results are expressed as mean survival of treated mice/mean survival of control mice (T/C)×100%. A T/C value of 150 means that the mice in the treated group lived 50% longer than those of the control group; this is sometimes referred to as the increase in life span, or ILS value.
# Statistics were performned on the data using primarily the log rank p-value test.
Structure (SMILES),"Tumor # ±S.D. (1000 mg/kg p.o. 2× weekly to end, control 31.70 ± 18.49, 1000 mg/kg)","# of non-specific Death (1000 mg/kg p.o. 2× weekly to end, n 10)","# of non-specific Death (1500 mg/kg p.o. 2× weekly to end, n 10)","Tumor # ±S.D. (2000 mg/kg p.o. 2× weekly to end, control 31.70 ± 18.49, 2000 mg/kg)","# of non-specific Death (2000 mg/kg p.o. 2× weekly to end, n 9)","# of non-specific Death (0.85 mg/kg p.o. ad libitum/H20, n 9)"
"COC(=O)Nc1nc2ccccc2[nH]1 [Carbendazim, 2-methoxycarbonylamino-benzimidazole]",24.7 and 24.71 ± 7.8,3,2,19.1 and 19.17 ± 7.36,3,
"CC1=C(CC(=O)O)c2cc(F)ccc2/C1=C\c1ccc([S+](C)[O-])cc1 (stereo not drawn) [Sulindac, reference compound]",,,,,,0
